Data as given in ChEMBL document CHEMBL1149750, “Drimane Sesquiterpene Lactones from Peniophora polygonia” (J Nat Prod, 1992).
Calls of active or inactive are those of the source. The rule behind the calls is not given here.

Tested on: Phellinus tremulae
Experiment: Antifungal activity against Phellinus tremulae
Assay type: functional, organism-based

In the case of `CC1(C)CCC[C@]2(C)[C@H]3COC(=O)[C@@]3(O)CC[C@@H]12`, the Activity is reported as “Active”.
